From ChEMBL document CHEMBL5360622, “Leucettinibs, a Class of DYRK/CLK Kinase Inhibitors Inspired by the Marine Sponge Natural Product Leucettamine B” (J Med Chem, 2023) come the findings set out here.

Assay [1] concerns the target Casein kinase I isoform epsilon (Homo sapiens, UniProt P49674).
Assay [2] deals with Cyclin-dependent kinase 5/CDK5 activator 1 (Homo sapiens, UniProt Q00535). It is filed as cell-based, Sf9.
Assay [3] deals with Dual specificity protein kinase CLK1 (Homo sapiens, UniProt P49759). It is filed as cell-based, Sf9.
Dual specificity protein kinase CLK1, sequence (P49759 whole entry): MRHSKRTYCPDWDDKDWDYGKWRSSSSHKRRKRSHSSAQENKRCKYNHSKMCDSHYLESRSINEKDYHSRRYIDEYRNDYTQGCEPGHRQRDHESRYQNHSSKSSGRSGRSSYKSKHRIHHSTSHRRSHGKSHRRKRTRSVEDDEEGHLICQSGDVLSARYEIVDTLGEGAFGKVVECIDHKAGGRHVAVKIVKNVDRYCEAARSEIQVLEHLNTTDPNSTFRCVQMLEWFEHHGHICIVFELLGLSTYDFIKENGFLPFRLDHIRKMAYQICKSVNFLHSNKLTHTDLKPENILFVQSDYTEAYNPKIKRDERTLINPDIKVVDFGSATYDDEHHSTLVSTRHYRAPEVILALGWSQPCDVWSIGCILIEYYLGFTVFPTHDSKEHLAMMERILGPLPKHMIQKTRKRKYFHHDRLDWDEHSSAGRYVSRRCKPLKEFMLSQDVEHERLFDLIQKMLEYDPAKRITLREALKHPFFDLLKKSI
The target of assay [4] is Dual specificity protein kinase CLK3 (Homo sapiens, UniProt P49761). It is filed as cell-based, Sf9.
Dual specificity protein kinase CLK3, sequence (P49761 whole entry): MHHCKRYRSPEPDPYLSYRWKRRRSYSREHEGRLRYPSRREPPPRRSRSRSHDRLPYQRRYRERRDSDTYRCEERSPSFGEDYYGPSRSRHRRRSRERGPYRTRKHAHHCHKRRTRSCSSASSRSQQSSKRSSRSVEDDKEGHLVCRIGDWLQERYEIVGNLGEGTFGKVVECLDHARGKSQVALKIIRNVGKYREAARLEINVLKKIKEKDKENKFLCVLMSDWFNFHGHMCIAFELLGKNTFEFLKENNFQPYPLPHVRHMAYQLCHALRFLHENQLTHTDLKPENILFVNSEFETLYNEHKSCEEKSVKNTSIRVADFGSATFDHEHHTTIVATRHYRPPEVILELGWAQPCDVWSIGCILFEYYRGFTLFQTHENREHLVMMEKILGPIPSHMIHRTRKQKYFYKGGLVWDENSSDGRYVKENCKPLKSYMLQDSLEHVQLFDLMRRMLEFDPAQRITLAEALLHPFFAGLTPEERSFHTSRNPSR
The target in assay [5] is Dual specificity protein kinase CLK4 (Homo sapiens, UniProt Q9HAZ1).
Dual specificity protein kinase CLK4, sequence (Q9HAZ1 whole entry): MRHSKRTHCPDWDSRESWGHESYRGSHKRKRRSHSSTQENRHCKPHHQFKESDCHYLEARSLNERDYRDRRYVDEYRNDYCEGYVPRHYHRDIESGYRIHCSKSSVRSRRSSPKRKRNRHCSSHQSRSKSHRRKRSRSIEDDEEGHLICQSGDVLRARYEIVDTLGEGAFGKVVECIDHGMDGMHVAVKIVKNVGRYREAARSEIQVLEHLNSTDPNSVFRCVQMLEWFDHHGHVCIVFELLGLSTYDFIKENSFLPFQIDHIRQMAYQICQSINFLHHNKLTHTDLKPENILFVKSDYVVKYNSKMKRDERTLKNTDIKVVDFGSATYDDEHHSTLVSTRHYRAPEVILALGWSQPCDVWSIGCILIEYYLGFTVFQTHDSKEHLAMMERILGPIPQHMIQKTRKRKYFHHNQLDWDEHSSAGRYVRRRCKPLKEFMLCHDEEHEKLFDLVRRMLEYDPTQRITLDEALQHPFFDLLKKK
Assay [6] concerns the target T1, Dual specificity tyrosine-phosphorylation-regulated kinase 2 (Homo sapiens, UniProt Q92630).
T1 sequence (Q92630 whole entry): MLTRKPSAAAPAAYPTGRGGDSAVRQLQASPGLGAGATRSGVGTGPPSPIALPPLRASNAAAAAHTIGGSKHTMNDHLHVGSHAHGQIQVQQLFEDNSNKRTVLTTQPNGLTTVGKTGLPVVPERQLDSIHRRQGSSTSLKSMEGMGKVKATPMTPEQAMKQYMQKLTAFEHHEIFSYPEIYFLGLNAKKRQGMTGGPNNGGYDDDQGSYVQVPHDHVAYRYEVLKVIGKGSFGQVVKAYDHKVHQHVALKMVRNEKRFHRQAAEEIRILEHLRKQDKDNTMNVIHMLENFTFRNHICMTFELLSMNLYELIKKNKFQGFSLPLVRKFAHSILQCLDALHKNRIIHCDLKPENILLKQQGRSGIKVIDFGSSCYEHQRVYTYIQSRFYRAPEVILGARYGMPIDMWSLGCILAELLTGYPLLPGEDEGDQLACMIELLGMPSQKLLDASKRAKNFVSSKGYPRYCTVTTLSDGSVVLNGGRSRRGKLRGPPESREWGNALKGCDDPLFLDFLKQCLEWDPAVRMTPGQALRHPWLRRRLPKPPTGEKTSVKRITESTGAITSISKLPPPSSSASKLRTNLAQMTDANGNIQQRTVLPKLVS

Assay [7] concerns the target T2, Dual specificity tyrosine-phosphorylation-regulated kinase 3 (Homo sapiens, UniProt O43781).
T2 sequence (O43781 whole entry): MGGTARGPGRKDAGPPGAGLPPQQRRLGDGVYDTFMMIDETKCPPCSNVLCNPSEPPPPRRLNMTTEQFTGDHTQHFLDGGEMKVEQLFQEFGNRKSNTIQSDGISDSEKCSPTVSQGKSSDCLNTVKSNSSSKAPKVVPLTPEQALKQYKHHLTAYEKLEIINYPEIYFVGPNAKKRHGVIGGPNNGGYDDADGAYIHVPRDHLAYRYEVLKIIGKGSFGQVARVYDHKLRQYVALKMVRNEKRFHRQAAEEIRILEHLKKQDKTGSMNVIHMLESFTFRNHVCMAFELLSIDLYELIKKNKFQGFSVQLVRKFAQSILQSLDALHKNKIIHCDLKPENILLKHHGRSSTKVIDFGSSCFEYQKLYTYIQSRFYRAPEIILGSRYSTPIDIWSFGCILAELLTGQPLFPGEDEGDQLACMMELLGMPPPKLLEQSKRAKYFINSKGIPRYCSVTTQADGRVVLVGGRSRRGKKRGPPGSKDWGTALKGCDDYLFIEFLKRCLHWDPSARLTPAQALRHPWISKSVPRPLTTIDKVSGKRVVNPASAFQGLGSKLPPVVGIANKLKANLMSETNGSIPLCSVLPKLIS

Assay [8] has as its target T3, Dual specificity tyrosine-phosphorylation-regulated kinase 4 (Homo sapiens, UniProt Q9NR20).
T3 sequence (Q9NR20 whole entry): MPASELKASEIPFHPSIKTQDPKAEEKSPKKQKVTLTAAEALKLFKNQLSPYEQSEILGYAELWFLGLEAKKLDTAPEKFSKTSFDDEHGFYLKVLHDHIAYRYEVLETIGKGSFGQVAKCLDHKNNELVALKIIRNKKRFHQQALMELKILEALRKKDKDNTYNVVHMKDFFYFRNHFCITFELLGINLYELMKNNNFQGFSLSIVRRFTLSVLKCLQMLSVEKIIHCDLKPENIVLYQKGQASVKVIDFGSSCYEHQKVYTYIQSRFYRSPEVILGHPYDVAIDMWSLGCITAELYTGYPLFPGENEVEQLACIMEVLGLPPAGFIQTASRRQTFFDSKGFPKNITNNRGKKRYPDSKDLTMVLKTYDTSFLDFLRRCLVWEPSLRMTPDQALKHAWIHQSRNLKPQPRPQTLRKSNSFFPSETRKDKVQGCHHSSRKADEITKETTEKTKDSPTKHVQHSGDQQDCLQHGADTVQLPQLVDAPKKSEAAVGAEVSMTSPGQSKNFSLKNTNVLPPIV

In assay [9] the target is Glycogen synthase kinase-3 beta (Homo sapiens, UniProt P49841). It is filed as cell-based, Sf9.
Glycogen synthase kinase-3 beta, sequence (P49841 whole entry): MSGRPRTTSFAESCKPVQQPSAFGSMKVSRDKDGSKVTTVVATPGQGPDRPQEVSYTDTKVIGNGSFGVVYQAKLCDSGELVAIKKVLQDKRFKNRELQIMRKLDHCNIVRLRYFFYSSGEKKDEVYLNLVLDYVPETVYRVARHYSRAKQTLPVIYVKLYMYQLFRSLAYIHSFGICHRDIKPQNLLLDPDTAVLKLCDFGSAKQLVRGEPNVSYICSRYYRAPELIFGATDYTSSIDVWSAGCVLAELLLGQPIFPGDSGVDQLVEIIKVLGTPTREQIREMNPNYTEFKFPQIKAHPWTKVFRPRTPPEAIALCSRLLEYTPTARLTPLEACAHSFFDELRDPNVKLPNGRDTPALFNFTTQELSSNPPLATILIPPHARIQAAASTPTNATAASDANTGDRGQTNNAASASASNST
In assay [10] the target is Dual specificity tyrosine-phosphorylation-regulated kinase 1A (Homo sapiens, UniProt Q13627).
In assay [11] the target is Dual specificity protein kinase CLK2 (Homo sapiens, UniProt P49760).
Dual specificity protein kinase CLK2, sequence (P49760 whole entry): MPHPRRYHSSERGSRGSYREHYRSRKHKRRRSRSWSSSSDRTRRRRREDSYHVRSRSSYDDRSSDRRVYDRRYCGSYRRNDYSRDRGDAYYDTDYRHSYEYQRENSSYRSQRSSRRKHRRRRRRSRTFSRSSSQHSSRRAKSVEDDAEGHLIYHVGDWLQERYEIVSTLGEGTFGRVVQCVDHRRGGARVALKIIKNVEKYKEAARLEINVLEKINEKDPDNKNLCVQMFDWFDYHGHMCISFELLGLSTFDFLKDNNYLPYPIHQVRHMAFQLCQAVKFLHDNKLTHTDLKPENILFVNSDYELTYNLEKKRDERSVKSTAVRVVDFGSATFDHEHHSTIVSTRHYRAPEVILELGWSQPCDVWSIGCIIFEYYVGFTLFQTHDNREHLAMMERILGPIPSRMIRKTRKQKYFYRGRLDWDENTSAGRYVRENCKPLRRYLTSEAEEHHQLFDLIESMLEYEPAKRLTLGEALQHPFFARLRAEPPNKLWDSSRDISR

Casein kinase I isoform epsilon, sequence (P49674 whole entry, canonical isoform): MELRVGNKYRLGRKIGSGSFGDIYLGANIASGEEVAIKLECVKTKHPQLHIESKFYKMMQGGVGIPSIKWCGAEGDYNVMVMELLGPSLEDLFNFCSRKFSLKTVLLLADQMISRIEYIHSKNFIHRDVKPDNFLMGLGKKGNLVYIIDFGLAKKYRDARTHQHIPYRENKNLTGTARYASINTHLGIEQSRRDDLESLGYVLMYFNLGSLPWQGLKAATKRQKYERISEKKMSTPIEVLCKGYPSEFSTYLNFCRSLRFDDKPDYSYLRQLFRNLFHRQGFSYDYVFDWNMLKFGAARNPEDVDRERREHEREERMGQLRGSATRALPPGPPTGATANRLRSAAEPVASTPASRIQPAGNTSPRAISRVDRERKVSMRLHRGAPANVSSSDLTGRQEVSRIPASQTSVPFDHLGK
Cyclin-dependent kinase 5/CDK5 activator 1, sequence (Q00535 whole entry): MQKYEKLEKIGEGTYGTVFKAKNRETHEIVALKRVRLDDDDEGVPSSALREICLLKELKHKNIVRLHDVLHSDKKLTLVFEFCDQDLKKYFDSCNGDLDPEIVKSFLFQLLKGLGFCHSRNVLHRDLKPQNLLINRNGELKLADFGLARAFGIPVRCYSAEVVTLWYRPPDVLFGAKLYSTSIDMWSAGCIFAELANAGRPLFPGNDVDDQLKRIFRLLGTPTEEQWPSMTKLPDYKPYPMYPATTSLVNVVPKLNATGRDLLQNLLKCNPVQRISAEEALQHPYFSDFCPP
Cyclin-dependent kinase 5/CDK5 activator 1, sequence (Q15078 whole entry, further chain): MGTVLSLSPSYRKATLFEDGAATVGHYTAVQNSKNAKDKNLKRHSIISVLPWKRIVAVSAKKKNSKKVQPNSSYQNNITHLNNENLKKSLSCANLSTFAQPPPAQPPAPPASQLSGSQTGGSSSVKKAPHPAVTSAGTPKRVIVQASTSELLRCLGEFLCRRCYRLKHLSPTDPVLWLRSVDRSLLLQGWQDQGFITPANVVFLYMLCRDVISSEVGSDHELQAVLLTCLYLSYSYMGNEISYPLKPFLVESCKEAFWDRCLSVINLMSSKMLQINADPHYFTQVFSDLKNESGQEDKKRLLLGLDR

Take `O=C1NC(NC23CC4(F)CC(F)(CC(F)(C4)C2)C3)=N/C1=C\c1ccc2ncsc2c1`: the IC50 – broadly, the concentration at which inhibition is half-maximal – in [1] came to 62 nM; in assay [2] it was 25 nM; in assay [3], 11 nM; in [4], 90 nM; in assay [5] it was 4 nM; in [6], 10 nM. Besides, the 50% inhibitory concentration (IC50) was 2 nM in [7], 146 nM in assay [8], 94 nM in [9] and 1 nM in [10].
In the case of `O=C1NC(NC2CCCCCC2)=N/C1=C\c1ccc2[nH]cnc2c1`, the IC50 in [2] is more than 10000 nM; in assay [3], 31 nM; in assay [11], 507 nM; in [4] it was 1550 nM; in assay [5], 8 nM; in assay [6], 2180 nM. Further, the IC50 in [8] is 865 nM; in [9], more than 10000 nM; in assay [10] it was 98 nM.
Take `O=C1NC(NC23CC4CC(CC(C4)C2)C3)=N/C1=C\c1ccc2[nH]cnc2c1`: the concentration for half-maximal inhibition (IC50) was more than 10000 nM in assay [2]; 5 nM in [3]; 2 nM in [11]; 7570 nM in assay [4]; 2 nM in assay [5]; 51 nM in assay [6]. The 50% inhibitory concentration (IC50) in assay [8] was 218 nM; in assay [9], more than 10000 nM; in [10], 2 nM.
As to `O=C1NC(NC23CC4CC(CC(C4)C2)C3)=N/C1=C\c1ccc2c(c1)CCO2`, the half-inhibitory concentration (IC50) in assay [1] is more than 10000 nM; in assay [2], more than 10000 nM; in assay [3] it was 102 nM; in assay [11] it was 17 nM; in assay [4], more than 10000 nM; in [5] it was 66 nM. For the same compound, the 50% inhibitory concentration (IC50) in assay [6] was 1630 nM; in assay [8], 626 nM; in assay [9], more than 10000 nM; in [10] it was 50 nM.
Turning to `O=C1NC(NC2CCCCC2)=N/C1=C\c1ccc2[nH]ncc2c1`, the IC50 in [1] is more than 10000 nM; in [2], more than 10000 nM; in assay [3], 541 nM; in assay [11], 2350 nM; in [4], 794 nM; in assay [8] it was more than 10000 nM. Further, the figures for the concentration for half-maximal inhibition (IC50) in assay [9] and in assay [10] were more than 10000 nM and 263 nM, respectively.
`COC(=O)[C@@H](NC1=N/C(=C\c2ccc3ncsc3c2)C(=O)N1)C(C)O` (stereo not given in full): the IC50 was more than 10000 nM in assay [1]; more than 10000 nM in assay [2]; 20 nM in assay [11]; 920 nM in assay [4]; 3 nM in assay [5]; 513 nM in assay [6]. Moreover, the 50% inhibitory concentration (IC50) in assay [7] amounted to 302 nM; in assay [8] it was 699 nM; in assay [9] it was 6030 nM; in [10], 3 nM.
Regarding `Cn1ncc2cc(/C=C3\N=C(NC4CCCCCC4)NC3=O)ccc21`, the concentration for half-maximal inhibition (IC50) is more than 10000 nM in [1]; more than 10000 nM in [2]; 1240 nM in assay [3]; more than 10000 nM in assay [11]; 381 nM in assay [4]; 430 nM in assay [5]. For the same compound, the half-maximal inhibitory concentration (IC50) in assay [6] is 1580 nM; in assay [8] it was 6090 nM; in assay [9], more than 10000 nM; in assay [10], 37 nM.
In the case of `Cn1ncc2cc(/C=C3\N=C(NC4CCCCC4)NC3=O)ccc21`, the IC50 in assay [1] was more than 10000 nM; in assay [2] it was more than 10000 nM; in [3], 2510 nM; in assay [11] it was 7770 nM; in [4], 1710 nM; in assay [5] it was 649 nM. For the same compound, the 50% inhibitory concentration (IC50) in assay [6] is 2540 nM; in assay [8], more than 10000 nM; in [9] it was more than 10000 nM; in [10] it was 141 nM.
As to `Cn1cnc2ccc(/C=C3\N=C(NC4CCCCCC4)NC3=O)cc21`, the half-inhibitory concentration (IC50) was more than 10000 nM in [1]; 8700 nM in assay [2]; 17 nM in assay [3]; 102 nM in assay [11]; 804 nM in [4]; 1490 nM in assay [6]. The IC50 in [7] is 758 nM; in assay [8], 1040 nM; in assay [9], more than 10000 nM; in assay [10], 67 nM.
On to `Cn1cnc2ccc(/C=C3\N=C(NC4CCCCC4)NC3=O)cc21`, for which the IC50 in assay [2] was more than 10000 nM; in assay [3], 20 nM; in assay [4], 1080 nM; in assay [5] it was 8 nM; in [6], 1470 nM; in [8], 1110 nM. Moreover, the IC50 in assay [9] was more than 10000 nM; in [10], 93 nM.
As for `O=C1NC(NC2CCCCC2)=N/C1=C\c1ccc2c(c1)CCO2`, the 50% inhibitory concentration (IC50) in assay [1] was more than 10000 nM; in assay [2] it was more than 10000 nM; in assay [3], 104 nM; in [11], 1250 nM; in [4] it was 5380 nM; in assay [5], 52 nM. Further, the IC50 in assay [6] is 3390 nM; in [8], 2990 nM; in [9], more than 10000 nM; in assay [10], 237 nM.
For `O=C1NC(NC23CC4CC(CC(C4)C2)C3)=N/C1=C\c1ccc2c(c1)OCO2`, the concentration for half-maximal inhibition (IC50) in [1] was more than 10000 nM; in assay [2], more than 10000 nM; in assay [3] it was 17 nM; in assay [11], 96 nM; in assay [4] it was more than 10000 nM; in [5], 4 nM. Further, the IC50 is 183 nM in [6], 1640 nM in [8], more than 10000 nM in [9] and 2 nM in assay [10].
On to `O=C1NC(NC2CCCCCC2)=N/C1=C\c1ccc2[nH]ncc2c1`, for which the half-maximal inhibitory concentration (IC50) is more than 10000 nM in assay [1]; more than 10000 nM in assay [2]; 139 nM in [3]; 725 nM in assay [11]; 266 nM in assay [4]; 112 nM in assay [5]. The IC50 in assay [6] is 1870 nM; in [9], 3950 nM; in assay [10] it was 33 nM.
As to `Cn1cc2cc(/C=C3\N=C(NC4CCCCC4)NC3=O)ccc2n1`, the IC50 is more than 10000 nM in assay [1]; more than 10000 nM in [2]; 951 nM in assay [3]; 6330 nM in [11]; 4530 nM in assay [4]; 3700 nM in [6]. Also, the IC50 in assay [7] was 4130 nM; in assay [8], more than 10000 nM; in [9], more than 10000 nM; in [10], 570 nM.
As to `Cn1cc2cc(/C=C3\N=C(NC45CC6CC(CC(C6)C4)C5)NC3=O)ccc2n1`, the IC50 in assay [1] was more than 10000 nM; in assay [2], more than 10000 nM; in [3], 4 nM; in assay [4] it was more than 10000 nM; in assay [7], 40 nM; in assay [8], 4300 nM. Further, the IC50 in assay [9] is more than 10000 nM; in assay [10], 2 nM.
For `O=C1NC(NC23CC4CC(CC(C4)C2)C3)=N/C1=C\c1ccc2ncoc2c1`, the IC50 in [1] is more than 10000 nM; in assay [2], 280 nM; in assay [3], 8 nM; in [4], 8530 nM; in [5], 3 nM; in assay [6] it was 62 nM. Also, the concentration for half-maximal inhibition (IC50) in assay [7] was 38 nM; in [9] it was 202 nM; in assay [10], 1 nM.
